Reference: patent publication US11382892B2, “Method for administration” (Hoffmann-La Roche Inc., priority 2012, dated 2022)
Several values for one entry are separate records, joined by “and”; a condition that tells them apart may be missing. Identical values can stand only once.

What was measured:
[1] = system: human osteosarcoma cancer xenograft model SJSA1; experiment: Survival / increase in life span in SJSA1 xenograft; type: in vivo, mice; details: for 50% Treatment Days (median survival): vehicle 26 days
Description: (§1) For survival assessment, the percent of increased life space (ILS) was calculated as: 100×[(median survival day of treated group−median survival day of control group)/median survival day of control group]. Median survival was determined utilizing Kaplan Meier survival analysis. Survival in treated groups was statistically compared with the vehicle group and survival comparisons were done between groups using the log-rank test (Graph Pad Prism, La Jolla, Calif., USA). Differences between groups were considered significant when the probability value (p) was ≤0:05.
(§2) All dose levels are reported as the actual dosage of Compound A rather than including drug plus polymer.
Female athymic Crl:NU-Foxn1nu mice (10/group), obtained from Charles River Laboratories (Wilmington, Del.) were utilized when they were approximately 10-12 weeks of age and weighed 23-25 g. The health of the mice was assessed daily by gross observation and analyses of blood samples taken from sentinel animals housed on shared shelf racks. All animals were allowed to acclimate and recover from any shipping-related stress for a minimum of 72 hours prior to experimental use. Autoclaved water and irradiated food (5058-ms Pico Lab mouse chow, Purina Mills, Richmond, Ind.) were provided ad libitum, and the animals were maintained on a 12 hour light and dark cycle. Cages, bedding and water bottles were autoclaved before use and changed weekly. All animal experiments were conducted in accordance with the Guide for the Care and Use of Laboratory Animals, local regulations, and protocols approved by the Roche Animal Care and Use Committee in an AAALAC accredited facility.
SJSA cells (ATCC) were maintained in RPMI 1640+10% (v/v) heat-inactivated FBS+i % (v/v) […] L-glutamine. Each mouse received 5×10^6 cells in a 1:1 mixture of phosphate buffered saline and Matrigel in a total volume of 0.2 ml. Cells were implanted subcutaneously in the right flank using a 1 cc syringe and a 26 gauge needle.
Treatment duration was 2-4 weeks. Dates of tumor implant, treatment initiation (study start date), and termination of treatment (study end date) can be found in Table 6 below. The starting tumor volume for this study was about 220 mm^3. Tumor volumes and animal body weights were measured three times per week and animals were monitored for clinical signs daily.

[2] = system: TUNEL + cells; experiment: TUNEL assay in patient tumor biopsy cells; type: in vivo, human; details: for TUNEL + cells (mm2) Average FCBL: cohort average; for TUNEL + cells (mm2) Median FCBL: cohort median; for TUNEL + cells (mm2) FCBL: individual patients, tumor biopsy vs baseline
Description: The 10 mg tablets contain hypromellose acetate succinate, mannitol, microcrystalline cellulose, croscarmellose sodium, colloidal silicon dioxide, and magnesium stearate. The film-coat consists of hypromellose, titanium dioxide, talc, triacetin, iron oxide yellow, and iron oxide red. The 50 mg, 200 mg, and 400 mg film coated tablets contain the excipients hypromellose acetate succinate, croscarmellose sodium, colloidal silicon dioxide, and magnesium stearate. The film-coat consists of polyvinyl alcohol, titanium dioxide, polyethylene glycol, talc, iron oxide yellow, iron oxide red, and iron oxide black.
Tumor biopsies were collected at baseline and cycle 1, day 5±2.
Tumor biopsy cells were analyzed via TUNEL (terminal deoxynucleotidyl transferase dUTP nick end labeling) to determine cell apoptosis. TUNEL is a common method for detecting DNA fragmentation that results from apoptotic signaling cascades. The assay relies on the presence of nicks in the DNA which can be identified by terminal deoxynucleotidyl transferase or TdT, an enzyme that will catalyze the addition of dUTPs that are secondarily labeled with a marker.

[3] = system: human acute myeloid leukemia xenograft model MOLM-13; experiment: Survival / increase in life span in MOLM-13 xenograft; type: in vivo, mice; details: 80 mg/kg qd × 5 po
Description: as §1, §2
Female SCID:beige mice (10/group), obtained from Charles River Laboratories (Wilmington, Del.) were utilized when they were approximately 8-10 weeks of age and weighed 21-23 g. The health of the mice was assessed daily by gross observation and analyses of blood samples taken from sentinel animals housed on shared shelf racks. All animals were allowed to acclimate and recover from any shipping-related stress for a minimum of 72 hours prior to experimental use. […]
Treatment duration was initiated on day 3 and was for 2 weeks. Animal body weights were measured three times per week and animals were monitored for clinical signs daily.

[4] = 100 mg/kg QD po 2 on/12 off x 2
[5] = 200 mg/kg (two 100 mg/kg doses 8 hr apart) 1x/wk po

COc1cc(C(=O)O)ccc1NC(=O)[C@@H]1N[C@@H](CC(C)(C)C)[C@](C#N)(c2ccc(Cl)cc2F)[C@H]1c1cccc(Cl)c1F [Compound A, 4-{[(2R,3S,4R,5S)-4-(4-Chloro-2-fluoro-phenyl)-3-(3-chloro-2-fluoro-phenyl)-4-cyano-5-(2,2-dimethyl-propyl)-pyrrolidine-2-carbonyl]-amino}-3-methoxy-benzoic acid]
% Increased Life Span (% ILS) ([1]; 7.5 mg/kg QD po): 23%
50% Treatment Days (median survival) ([1]; 7.5 mg/kg QD po): 32 days
% Increased Life Span (% ILS) ([1]; 15 mg/kg QD po): 62%
50% Treatment Days (median survival) ([1]; 15 mg/kg QD po): 42 days
% Increased Life Span (% ILS) ([1]; 20 mg/kg QD po 20 on/8 off): 77%
50% Treatment Days (median survival) ([1]; 20 mg/kg QD po 20 on/8 off): 46 days
% Increased Life Span (% ILS) ([1]; 30 mg/kg QD po): 127%
50% Treatment Days (median survival) ([1]; 30 mg/kg QD po): 59 days
% Increased Life Span (% ILS) ([1]; 50 mg/kg 1x/wk po): 23%
50% Treatment Days (median survival) ([1]; 50 mg/kg 1x/wk po): 32 days
% Increased Life Span (% ILS) ([1]; 50 mg/kg QD po 2 on/5 off x 4): 119%
50% Treatment Days (median survival) ([1]; 50 mg/kg QD po 2 on/5 off x 4): 57 days
% Increased Life Span (% ILS) ([1]; 50 mg/kg QD po 4 on/10 off x 2): 112%
50% Treatment Days (median survival) ([1]; 50 mg/kg QD po 4 on/10 off x 2): 55 days
% Increased Life Span (% ILS) ([1]; 80 mg/kg QD po 5 on/23 off): 127%
50% Treatment Days (median survival) ([1]; 80 mg/kg QD po 5 on/23 off): 59 days
% Increased Life Span (% ILS) ([1]; 100 mg/kg 1x/wk po): 77%
50% Treatment Days (median survival) ([1]; 100 mg/kg 1x/wk po): 46 days
% Increased Life Span (% ILS) ([1]; 100 mg/kg QD po 2 on/5 off x 4): 188%
50% Treatment Days (median survival) ([1]; 100 mg/kg QD po 2 on/5 off x 4): 75 days
% Increased Life Span (% ILS) [1, 4]: 119%
50% Treatment Days (median survival) [1, 4]: 57 days
% Increased Life Span (% ILS) [1, 5]: 162%
50% Treatment Days (median survival) [1, 5]: 68 days
TUNEL + cells (mm2) Average FCBL ([2]; BM-A1 800 mg bid Qwk × 3): 1.2
TUNEL + cells (mm2) Median FCBL ([2]; BM-A1 800 mg bid Qwk × 3): 0.8
TUNEL + cells (mm2) FCBL ([2]; BM-A1 800 mg bid Qwk × 3): 0.8 (2×) and 3.2 and 0.1
TUNEL + cells (mm2) Average FCBL ([2]; BM-A2 1200 mg bid Qwk × 3): 2.7
TUNEL + cells (mm2) Median FCBL ([2]; BM-A2 1200 mg bid Qwk × 3): 2.3
TUNEL + cells (mm2) FCBL ([2]; BM-A2 1200 mg bid Qwk × 3): 5.3 and 2.3 and 0.9 and 1.6 and 3.3
TUNEL + cells (mm2) Average FCBL ([2]; BM-B1 400 mg bid × 5 d): 1.7
TUNEL + cells (mm2) Median FCBL ([2]; BM-B1 400 mg bid × 5 d): 1.8
TUNEL + cells (mm2) FCBL ([2]; BM-B1 400 mg bid × 5 d): 0.9 (2×) and 1.8 (2×) and 3.2
TUNEL + cells (mm2) Average FCBL ([2]; BM-B2 500 mg bid × 3 d): 1.7
TUNEL + cells (mm2) Median FCBL ([2]; BM-B2 500 mg bid × 3 d): 0.9
TUNEL + cells (mm2) FCBL ([2]; BM-B2 500 mg bid × 3 d): 0.5 and 0.4 and 0.6 and 5.3 and 1.2 and 1.9
TUNEL + cells (mm2) Average FCBL ([2]; BM-B3 500 mg qd × 5 d): 1.2
TUNEL + cells (mm2) Median FCBL ([2]; BM-B3 500 mg qd × 5 d): 1.2
TUNEL + cells (mm2) FCBL ([2]; BM-B3 500 mg qd × 5 d): 0.6 and 1.7 and 1.2
apoptosis by TUNEL ([2]; doses and schedules of Table 10): increase in apoptosis
% ILS [3]: 37%
50% Treatment Days (median survival) ([3]; vehicle 21 days): 28 days
